According to the NIST ThermoML archive (doi:10.1021/je0604378):

Settings: Liquid; for speed of sound: Pulse-echo method; for mass density: 101.33 kPa

CCCCCCCCO [octan-1-ol]
Settings	speed of sound [m/s]
292.77 K, 15230 kPa	1440.3
292.77 K, 30430 kPa	1505.2
292.77 K, 76010 kPa	1670.1
292.78 K, 60800 kPa	1619.3
292.79 K, 91200 kPa	1717.8
292.83 K, 45610 kPa	1564.1
292.83 K, 96120 kPa	1733
292.92 K, 100 kPa	1365.2
298.07 K, 76040 kPa	1656.5
298.07 K, 91190 kPa	1703.9
298.07 K, 97840 kPa	1724.3
298.09 K, 45610 kPa	1548.8
298.09 K, 60840 kPa	1604.6
298.13 K, 30410 kPa	1488.8
298.19 K, 15200 kPa	1422.6
298.2 K, 100 kPa	1347.1
303.15 K, 76000 kPa	1642.8
303.16 K, 91200 kPa	1691.2
303.18 K, 100 kPa	1330.2
303.2 K, 101340 kPa	1722.3
303.26 K, 60820 kPa	1590.2
303.27 K, 15200 kPa	1406.2
303.27 K, 45600 kPa	1533.9
303.28 K, 30410 kPa	1473.3
308.12 K, 91200 kPa	1679.2
308.12 K, 101320 kPa	1710.3
308.16 K, 100 kPa	1313.3
308.16 K, 91210 kPa	1679.1
308.17 K, 30400 kPa	1458.8
308.17 K, 76020 kPa	1630
308.18 K, 45600 kPa	1520.3
308.18 K, 60790 kPa	1576.8
308.19 K, 15210 kPa	1390.7
313.15 K, 100 kPa	1296.5
313.22 K, 91200 kPa	1666.8
313.22 K, 101340 kPa	1697.8
313.23 K, 76000 kPa	1616.6
313.26 K, 15200 kPa	1375.1
313.26 K, 30390 kPa	1443.9
313.26 K, 45590 kPa	1506.1
313.28 K, 60790 kPa	1563.5
318.33 K, 100 kPa	1279.2
318.82 K, 45600 kPa	1491
318.82 K, 60790 kPa	1549.2
318.82 K, 75990 kPa	1603.4
318.82 K, 101330 kPa	1684.9
318.83 K, 15200 kPa	1357.8
318.83 K, 91180 kPa	1653.7
318.84 K, 30390 kPa	1427.8

Settings	mass density [kg/m3]
293.15 K	825.048
298.15 K	821.636
303.15 K	818.173
308.15 K	814.675
313.15 K	811.171
318.15 K	807.654

CCCCCCCO [heptan-1-ol]
Settings	speed of sound [m/s]
292.76 K, 75990 kPa	1654.2
292.77 K, 30390 kPa	1487.3
292.77 K, 45590 kPa	1546.9
292.77 K, 60790 kPa	1602.6
292.77 K, 91180 kPa	1702
292.77 K, 101320 kPa	1732.7
292.78 K, 15200 kPa	1421.7
292.89 K, 100 kPa	1345.4
298.06 K, 15200 kPa	1404.9
298.06 K, 30390 kPa	1471.8
298.06 K, 45590 kPa	1532.3
298.06 K, 60790 kPa	1588.2
298.06 K, 75990 kPa	1640.4
298.06 K, 91180 kPa	1688.9
298.06 K, 101320 kPa	1719.6
298.17 K, 100 kPa	1327.2
302.94 K, 15200 kPa	1389.5
302.94 K, 30390 kPa	1457.3
302.94 K, 45590 kPa	1518.7
302.94 K, 60790 kPa	1575.3
302.94 K, 91180 kPa	1677
302.94 K, 101320 kPa	1708
302.95 K, 75990 kPa	1628
303.14 K, 100 kPa	1310.2
307.93 K, 60790 kPa	1561.9
307.93 K, 91180 kPa	1664.8
307.94 K, 15200 kPa	1374
307.94 K, 30390 kPa	1442.8
307.94 K, 45590 kPa	1505
307.94 K, 75990 kPa	1615.5
307.94 K, 101320 kPa	1696
308.12 K, 100 kPa	1293.2
312.9 K, 30390 kPa	1428.7
312.9 K, 45590 kPa	1491.6
312.9 K, 60790 kPa	1549.1
312.9 K, 75990 kPa	1603.1
312.9 K, 91180 kPa	1653
312.91 K, 15200 kPa	1358.9
312.91 K, 101320 kPa	1684.7
313.09 K, 100 kPa	1276.3
318.29 K, 30390 kPa	1413.6
318.29 K, 45590 kPa	1477.5
318.29 K, 60790 kPa	1535.5
318.29 K, 75990 kPa	1590
318.29 K, 91180 kPa	1640.6
318.29 K, 101320 kPa	1672.4
318.3 K, 15200 kPa	1342.8
318.37 K, 100 kPa	1258.6

Settings	mass density [kg/m3]
293.15 K	822.297
298.15 K	818.796
303.15 K	815.269
308.15 K	811.724
313.15 K	808.158
318.15 K	804.546

CCCCCCCCCCO [decan-1-ol]
Settings	speed of sound [m/s]
292.86 K, 60790 kPa	1646.3
292.9 K, 30390 kPa	1533.8
292.91 K, 15200 kPa	1470.6
292.96 K, 45590 kPa	1592
293.1 K, 100 kPa	1397.2
297.95 K, 15200 kPa	1453.8
297.95 K, 66240 kPa	1649.8
297.96 K, 30390 kPa	1518
297.96 K, 60790 kPa	1631.4
297.96 K, 69300 kPa	1660
297.98 K, 45590 kPa	1576.8
297.99 K, 71850 kPa	1668.2
297.99 K, 73520 kPa	1673.6
297.99 K, 74700 kPa	1677.6
298 K, 75990 kPa	1681.7
298.07 K, 100 kPa	1380
302.92 K, 15200 kPa	1436.8
303.02 K, 60790 kPa	1617
303.03 K, 66240 kPa	1635.7
303.03 K, 71560 kPa	1653.5
303.04 K, 100 kPa	1362.8
303.04 K, 73600 kPa	1660.2
303.05 K, 69230 kPa	1645.7
303.08 K, 30390 kPa	1501.5
303.09 K, 75990 kPa	1667.8
303.11 K, 45590 kPa	1561
303.15 K, 74790 kPa	1664.1
307.92 K, 75990 kPa	1655.1
307.93 K, 74720 kPa	1650.9
307.94 K, 73310 kPa	1646.2
307.95 K, 65860 kPa	1620.9
307.96 K, 60790 kPa	1603.1
307.96 K, 68850 kPa	1631.3
307.96 K, 71380 kPa	1639.8
307.97 K, 30390 kPa	1486.6
307.98 K, 45590 kPa	1546.9
308.04 K, 100 kPa	1345.8
308.09 K, 15200 kPa	1420
313 K, 60790 kPa	1589.4
313 K, 65980 kPa	1607.8
313 K, 69200 kPa	1618.9
313.01 K, 100 kPa	1329
313.01 K, 45590 kPa	1532.5
313.03 K, 30390 kPa	1471.9
313.03 K, 72900 kPa	1631.5
313.04 K, 75990 kPa	1641.7
313.06 K, 15200 kPa	1404.5
318.18 K, 100 kPa	1311.7
318.36 K, 15200 kPa	1387.7
318.4 K, 65950 kPa	1593.7
318.41 K, 60790 kPa	1575.1
318.43 K, 72660 kPa	1617
318.43 K, 73870 kPa	1621.1
318.43 K, 75990 kPa	1628.2
318.44 K, 30390 kPa	1456
318.44 K, 45590 kPa	1517.7
318.45 K, 30390 kPa	1455.9

Settings	mass density [kg/m3]
293.15 K	829.758
298.15 K	826.37
303.15 K	822.95
308.15 K	819.57
313.15 K	816.12
318.15 K	812.634

CCCCCCCCCO [nonan-1-ol]
Settings	speed of sound [m/s]
292.86 K, 45590 kPa	1579.5
292.86 K, 91180 kPa	1731.8
292.86 K, 101320 kPa	1762
292.87 K, 15200 kPa	1456.7
292.87 K, 30390 kPa	1520.8
292.87 K, 60790 kPa	1634
292.87 K, 75990 kPa	1684.4
292.88 K, 100 kPa	1382.8
297.95 K, 60790 kPa	1620
297.95 K, 91180 kPa	1718.7
297.95 K, 101320 kPa	1749.2
297.96 K, 15200 kPa	1440.2
297.96 K, 30390 kPa	1505.4
297.96 K, 45590 kPa	1564.5
297.96 K, 75990 kPa	1670.7
298.18 K, 100 kPa	1364.6
302.93 K, 45590 kPa	1550.1
302.93 K, 60790 kPa	1606
302.93 K, 75990 kPa	1657.6
302.93 K, 91180 kPa	1705.8
302.93 K, 101320 kPa	1736.7
302.94 K, 15200 kPa	1424.3
302.94 K, 30390 kPa	1490.2
303.16 K, 100 kPa	1347.5
307.91 K, 30390 kPa	1475.5
307.91 K, 45590 kPa	1536
307.91 K, 60790 kPa	1592.4
307.92 K, 15200 kPa	1408.5
307.92 K, 75990 kPa	1644.7
307.92 K, 91180 kPa	1693.2
307.92 K, 101320 kPa	1724.3
308.14 K, 100 kPa	1330.6
312.91 K, 15200 kPa	1392.8
312.91 K, 30390 kPa	1460.8
312.91 K, 45590 kPa	1522.2
312.91 K, 60790 kPa	1578.9
312.91 K, 75990 kPa	1632
312.91 K, 91180 kPa	1681.1
312.91 K, 101320 kPa	1712.3
313.11 K, 100 kPa	1313.8
318.29 K, 100 kPa	1296.3
318.38 K, 45590 kPa	1507.3
318.38 K, 60790 kPa	1564.6
318.38 K, 75990 kPa	1618.3
318.38 K, 91180 kPa	1667.8
318.38 K, 101320 kPa	1699.1
318.39 K, 15200 kPa	1375.9
318.39 K, 30390 kPa	1444.8
318.39 K, 45590 kPa	1507.3
318.39 K, 91180 kPa	1667.8

Settings	mass density [kg/m3]
293.15 K	827.66
298.15 K	824.239
303.16 K	820.8
308.15 K	817.345
313.15 K	813.868
318.15 K	810.376
